Assay results published in patent publication US20070264679A1, “Method for analyzing the activity of lipoxygenase using a water-soluble substrate” (Chungnam National University Industry Collaboration …, priority 2006, published 2007).

How the values were obtained:
leukocyte LOX = molecular target: T1, leukocyte LOX (Sus scrofa, UniProt P16469); experiment: Position specificity of leukocyte LOX in oxygenation of arachidonoyl-lysoPC (SP-HPLC of HETE); format: biochemical, porcine; conditions: predominant product 12-HETE
T1 construct: purchased Cayman Chemical Co. (Ann Arbor, Mich., USA)
T1 sequence (P16469 1-663): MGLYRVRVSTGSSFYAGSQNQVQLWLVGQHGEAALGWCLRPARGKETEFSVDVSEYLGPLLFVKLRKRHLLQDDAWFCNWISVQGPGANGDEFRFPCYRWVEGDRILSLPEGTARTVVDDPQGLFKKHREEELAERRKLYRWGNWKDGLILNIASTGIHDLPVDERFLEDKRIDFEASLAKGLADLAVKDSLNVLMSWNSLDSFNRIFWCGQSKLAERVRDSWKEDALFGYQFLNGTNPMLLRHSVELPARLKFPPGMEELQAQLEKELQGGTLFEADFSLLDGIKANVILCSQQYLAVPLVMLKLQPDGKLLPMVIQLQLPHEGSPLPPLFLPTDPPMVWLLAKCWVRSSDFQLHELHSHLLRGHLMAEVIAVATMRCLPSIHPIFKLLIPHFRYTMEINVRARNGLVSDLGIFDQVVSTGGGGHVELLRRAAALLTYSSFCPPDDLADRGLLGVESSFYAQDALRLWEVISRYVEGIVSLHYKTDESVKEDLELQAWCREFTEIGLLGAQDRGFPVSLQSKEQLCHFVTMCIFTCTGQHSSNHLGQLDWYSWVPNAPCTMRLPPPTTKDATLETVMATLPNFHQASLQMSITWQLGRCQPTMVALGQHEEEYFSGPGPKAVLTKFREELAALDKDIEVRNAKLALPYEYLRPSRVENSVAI
Protocol: After 30 min incubation, the reaction was stopped by the addition of sodium borohydride to reduce hydroperoxy compounds to their corresponding alcohols, which were subjected to alkaline hydrolysis. After 30 min incubation at 60° C. under N2, the mixture was subjected to lipid extraction as described previously (Leon et al, J. Agric. Food. Chem. 52 (2004) 1207-1211). Finally, the lipid extract was analyzed by SP-HPLC system equipped with silica gel column (4 μm, 150×3.9 mm, Waters, USA), which was eluted (1 ml/min) with n-hexane/isopropyl alcohol/acetic acid (100:1:0.05). The identification of hydrolysis products was carried out in comparison with each standard compound, 15-hydroxyeicosatetraenoic acid (HETE) or 12-HETE.
To establish the position of oxygenation of arachidonoyl chain in arachidonoyl-lysoPC, hydroperoxyeicosatetraenoyl-lysoPC was subjected to NaBH4 reduction, followed by saponification in alkaline medium, to afford hydroxyeicosatetraenoic acid, which was further purified by SP-HPLC.

[1] = molecular target: T2, LOX-1 (soybean lipoxygenase) (Glycine max, UniProt P08170); experiment: pH-dependent oxygenation by LOX, initial velocity of absorbance at 234 nm; format: biochemical; conditions: substrate 100 μM; for LOX activity on various pH conditions: 30 sec, 25° C.
T2 construct: purchased Sigma-Aldrich Corp (St. Louis, Mo., USA) lipoxidase Type I-B
T2 sequence (P08170 1-839): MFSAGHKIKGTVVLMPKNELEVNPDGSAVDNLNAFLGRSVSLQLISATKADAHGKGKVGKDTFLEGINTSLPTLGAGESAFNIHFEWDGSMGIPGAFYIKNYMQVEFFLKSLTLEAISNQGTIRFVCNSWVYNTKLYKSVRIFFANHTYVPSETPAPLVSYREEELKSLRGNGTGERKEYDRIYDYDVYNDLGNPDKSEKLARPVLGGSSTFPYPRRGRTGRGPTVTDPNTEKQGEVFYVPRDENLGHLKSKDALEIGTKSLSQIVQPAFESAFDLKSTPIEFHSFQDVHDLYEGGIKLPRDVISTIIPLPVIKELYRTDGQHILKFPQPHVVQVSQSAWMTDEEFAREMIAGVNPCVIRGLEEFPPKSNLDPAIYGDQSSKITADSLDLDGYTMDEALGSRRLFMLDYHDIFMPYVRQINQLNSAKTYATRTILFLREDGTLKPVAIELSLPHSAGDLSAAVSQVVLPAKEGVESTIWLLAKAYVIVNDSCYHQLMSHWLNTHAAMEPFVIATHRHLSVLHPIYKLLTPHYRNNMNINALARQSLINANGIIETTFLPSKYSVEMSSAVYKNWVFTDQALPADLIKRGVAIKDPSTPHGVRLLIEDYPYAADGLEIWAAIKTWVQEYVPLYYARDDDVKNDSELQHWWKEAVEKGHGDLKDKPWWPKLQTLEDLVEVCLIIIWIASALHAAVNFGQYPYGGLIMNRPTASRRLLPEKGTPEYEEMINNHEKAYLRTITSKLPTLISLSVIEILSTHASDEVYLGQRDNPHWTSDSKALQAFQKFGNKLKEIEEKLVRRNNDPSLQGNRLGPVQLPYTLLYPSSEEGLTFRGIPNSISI
Protocol: FIG. 7 is an absorbance-pH graph showing the effect of pH on the rate of LOX-1-catalyzed oxygenation of linoleoyl-lysoPC where LOX-1 (0.02 units/ml) was incubated with 100 μM of linoleoyl-lysoPC (▪), 100 μM of sodium linoleate (●) or 250 μM of soybean LPC (▴) in buffers of various pHs; 200 mM phosphate (pH 6-8), 50 mM borax (pH 8.5-9.5) and 300 mM sodium bicarbonate (pH 10-11).
LOX-1 (0.02 units/ml) was incubated with linoleoyl-lysoPC (100 μM) in 500 μl of buffers of various pHs (pH 6.0-11) at 25° C. as described before (Began et al, Biochemistry 38 (1999) 13920-13927); 200 mM phosphate (pH 6-8), 50 mM borax (pH 8.5-9.5), 300 mM sodium bicarbonate (pH 10-11). Separately, the oxygenation was started by including LOX-1 (0.02 units/ml) in the reaction mixture containing sodium linoleate (100 μM) in the presence of Tween 20 (25 μM). […]
LO (840 units/ml Sigma, Saint Louis, Mo., USA) was incubated with 1-linoleoyl-lysophosphatidylcholine (100 μM) in 0.5 ml of buffers of various pHs (pH 6.0-11) as shown in Table 4 for 30 sec at 25° C.

LOX activity on various pH conditions ([1]; pH 6.5) | LOX activity on various pH conditions ([1]; pH 9.5) | LOX activity on various pH conditions ([1]; pH 10.5) | SMILES | minor product behaving like 15-HETE in leukocyte LOX-catalyzed oxygenation (leukocyte LOX) | LOX activity on various pH conditions ([1]; pH 7) | LOX activity on various pH conditions ([1]; pH 7.5) | LOX activity on various pH conditions ([1]; pH 8) | LOX activity on various pH conditions ([1]; pH 8.5) | LOX activity on various pH conditions ([1]; pH 9) | LOX activity on various pH conditions ([1]; pH 10) | LOX activity on various pH conditions ([1]; pH 11) | optimal pH range for oxygenation by LOX-1 ([1]; LOX-1 0.02 units/ml, pH 6-11) | LOX activity on various pH conditions ([1]; pH 6)
 |  |  | CCCCC/C=C\C/C=C\C/C=C\C/C=C\CCCC(=O)OCC(O)COP(=O)([O-])OCC[N+](C)(C)C (centres unmarked) [Arachidonoyl-lysoPC, 1-Arachidonoyl lysophosphatidylcholine] | ≤ 5% |  |  |  |  |  |  |  |  | 
◯ | ◯ | ◯ | CCCCC/C=C\C/C=C\CCCCCCCC(=O)O [Linoleic acid, linoleic acid] |  | ◯ | ◯ | ◯ | ◯ | ◯ | ◯ | ◯ |  | 
 |  |  | CCCCC/C=C\C/C=C\CCCCCCCC(=O)OCC(O)COP(=O)([O-])OCC[N+](C)(C)C (centres unmarked) [Linoleoyl-lysoPC, 1-linoleoyl Lysophosphatidylcholine] |  | ◯ | ◯ | ◯ | ◯ | ◯ | ◯ | ◯ | about 9 | ◯
